The values below come from article PMC9150076 (Journal of Medicinal Chemistry, 2022).

Read-outs that look alike come from different tables or passages of the source.

Data set [1] has as its system PDAC3 cells. Put plainly: Apoptosis assay, Annexin-V staining, PDAC3. It counts as cell-based, human. To be noted: PDAC3, drug at IC50, 72 h, compared to untreated cells.
Data set [2] has as its system PDAC3 cells. Put plainly: Wound-healing/migration assay, PDAC3. It counts as cell-based, human. To be noted: PDAC3, 20 h, drug at 5× IC50; control 59 ± 8%.
The target of a further data set is ABHD6 (Mus musculus, UniProt Q8R2Y0).
ABHD6, sequence (Q8R2Y0 whole entry): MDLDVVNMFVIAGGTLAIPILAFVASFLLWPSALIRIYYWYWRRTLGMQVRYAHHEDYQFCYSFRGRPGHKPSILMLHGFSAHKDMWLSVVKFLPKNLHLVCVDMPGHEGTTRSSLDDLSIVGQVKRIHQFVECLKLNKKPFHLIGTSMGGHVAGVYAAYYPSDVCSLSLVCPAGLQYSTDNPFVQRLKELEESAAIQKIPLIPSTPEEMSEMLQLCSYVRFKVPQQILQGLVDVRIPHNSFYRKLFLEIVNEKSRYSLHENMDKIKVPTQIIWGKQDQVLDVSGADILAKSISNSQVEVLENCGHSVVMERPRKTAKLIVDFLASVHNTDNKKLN
A further data set relates to Bcl-2. Put plainly: qRT-PCR gene expression, Bcl-2. It counts as cell-based. The note with it: 5× IC50, 24 h, compared to untreated cells. The method, then: (§1) To elucidate the previous data on apoptosis and migration and the mechanism of interaction, further studies focused on several potential cellular determinants and effectors of drug activities, such as the anti-apoptotic factor Bcl-2, the key matrix metalloproteinase 9 (MMP9), which promotes cell migration, and the main gemcitabine transporter, the human equilibrative nucleoside transporter 1 (hENT1).
(§2) Real-time quantitative reverse transcription PCR (qRT-PCR) was performed to evaluate the gene expression of MMP9, BCL-2, BCL-x, and hENT1, using β-actin, and GAPDH as housekeeping genes. […] Total RNA was extracted using the TRIzol Reagent (15596–026, ThermoFisher Scientific, Waltham, MA) according to the manufacturer’s protocol. One microgram of RNA was reverse transcribed using first-strand cDNA synthesis (First Strand cDNA Synthesis Kit; ThermoFisher #K1612) on a Bio-Rad machine C100 Thermal Cycler. Real-time qPCR quantification was performed using specific TaqMan detection probes and primers (TaqMan Universal PCR Master Mix #4304437; Thermo Fisher Scientific, USA) with the ABIPRISM-7500 instrument (Applied Biosystems, Foster City, CA), as described previously.[60] Data obtained were analyzed according to the 2^–ΔΔCt method.

The next data set is described as follows: Water solubility. To be noted: distilled water, room temperature. It counts as physicochemical. The protocol:
6.9 software. Chromatographic separation was obtained using a Kinetex C18 column (150 × 4.6 mm) with a 5 μm particle size and gradient elution with a binary solution; (eluent A: ACN, eluent B: water, both eluents were acidified with formic acid 0.1% v/v). The analysis started with 5% of A (from t = 0 to t = 1 min), then A was increased to 95% (from t = 1 to t = 10 min), then kept at 95% (from t = 10 to t = 19 min), and finally returned to 5% of eluent A in 1.0 min. The flow rate was 0.6 mL/min, and injection volumes were 10 μL. The instrument operated in positive mode, and parameters were detector 1450 V, drying gas pressure 35.0 psi, desolvation temperature 300.0 °C, nebulizing gas 45.0 psi, needle 5550 V and shield 350 V. Nitrogen was used as a nebulizer gas and drying gas. Collision-induced dissociation was performed using argon as the collision gas at a pressure of 1.8 mTorr in the collision cell. The transitions as well as the capillary voltage and the collision energy used are appropriated for each tested compound. Quantification of the single compound was made by comparison with appropriate calibration curves realized with standard solutions in methanol. LC analyses of PAMPA, metabolic stability, and stability tests (in MeOH, PBS, human plasma) were performed by UV/LC–MS with an Agilent 1100 LC/MSD VL system ((G1946C) Agilent Technologies, Palo Alto, CA) using a Phenomenex Kinetex C18–100 Å (150 × 4.6 mm, 5 μm particle size) at room temperature. Analyses were carried out with the same chromatographic conditions reported above.
Each sample was mixed at room temperature in a shaker water bath for 24 h.[62] The resulting suspension was filtered through a 0.45 μm nylon filter (Acrodisc), and the solubilized compound was quantified in triplicate using the LC–MS/MS method reported above, by comparison with the appropriate calibration curve that was obtained from samples of the compound dissolved in methanol at different concentrations.

The next data set deals with ABHD12 (Mus musculus, UniProt Q99LR1).
ABHD12, sequence (Q99LR1 whole entry): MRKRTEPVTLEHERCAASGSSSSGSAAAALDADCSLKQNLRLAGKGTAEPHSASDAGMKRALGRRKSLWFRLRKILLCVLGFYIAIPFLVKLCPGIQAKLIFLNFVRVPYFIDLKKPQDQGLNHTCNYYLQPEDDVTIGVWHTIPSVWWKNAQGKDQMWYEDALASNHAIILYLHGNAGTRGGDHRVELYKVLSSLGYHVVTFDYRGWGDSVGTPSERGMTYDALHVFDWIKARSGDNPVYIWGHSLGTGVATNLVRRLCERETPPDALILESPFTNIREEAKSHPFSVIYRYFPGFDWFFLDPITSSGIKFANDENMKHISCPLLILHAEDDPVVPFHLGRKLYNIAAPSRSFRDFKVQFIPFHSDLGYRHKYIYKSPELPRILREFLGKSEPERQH
Data set [3] concerns immortalized ductal normal cells HPNE. Put plainly: Growth inhibition, SRB assay, HPNE normal cells. To be noted: 72 h. It counts as cell-based, human. For orientation: In SRB staining, fixed cells bind dye roughly in proportion to their protein.
Data set [4] relates to PDAC3 primary cell culture. Put plainly: Growth inhibition, SRB assay, PDAC3. It counts as cell-based, human. The note with it: Homo sapiens, PDAC-3; PDAC3, 72 h, SRB; read-out: IC50 antiproliferative activity.
The target in a further data set is T1, hCB1 (Homo sapiens, UniProt P21554).
T1 construct: expressed in transfected cells
T1 sequence (P21554 whole entry): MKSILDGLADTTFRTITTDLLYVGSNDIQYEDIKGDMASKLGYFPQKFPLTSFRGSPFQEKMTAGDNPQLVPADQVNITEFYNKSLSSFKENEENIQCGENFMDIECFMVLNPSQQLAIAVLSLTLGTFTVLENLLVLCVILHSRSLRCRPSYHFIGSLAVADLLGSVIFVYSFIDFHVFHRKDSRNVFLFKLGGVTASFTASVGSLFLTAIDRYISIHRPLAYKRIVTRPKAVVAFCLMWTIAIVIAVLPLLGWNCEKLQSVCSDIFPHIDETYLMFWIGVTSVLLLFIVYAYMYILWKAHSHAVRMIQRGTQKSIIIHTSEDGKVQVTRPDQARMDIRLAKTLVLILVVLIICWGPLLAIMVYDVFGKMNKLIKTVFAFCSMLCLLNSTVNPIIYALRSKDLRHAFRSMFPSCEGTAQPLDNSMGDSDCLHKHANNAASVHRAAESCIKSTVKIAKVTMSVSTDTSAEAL
Put plainly: CB1 binding assay, [3H]CP55,940 displacement.

Another data set addresses FAAH (Mus musculus, UniProt O08914). It counts as biochemical.
Data set [5] can be described thus: Metabolic stability in human liver microsomes. It counts as in vitro ADME. To be noted: 37 °C, 1 h, percentage of unmodified compound. The method, then:
The reaction was cooled down in ice and quenched by adding acetonitrile (1.0 mL). After centrifugation (4000 rpm for 10 min), the supernatant was taken, dried under nitrogen flow, and suspended in 100 μL of methanol and the parent drug and metabolites were subsequently determined by UV/LC–MS. The percentage of nonmetabolized compounds was calculated by comparison with reference solutions. For each compound, the determination was performed in three independent experiments.
(In general: Liver microsomes are vesicles of endoplasmic reticulum, rich in cytochrome P450 enzymes.)

Data set [6] concerns PDAC2 primary cell culture. Put plainly: Growth inhibition, SRB assay, PDAC2. It counts as cell-based. The note with it: Homo sapiens, PDAC-2, PDAC2, 72 h, read-out: IC50 antiproliferative activity.
Data set [7] deals with active caspase-3 in PDAC2 cells. Put plainly: Active caspase-3 immunoassay, PDAC2. It counts as cell-based, human. To be noted: untreated 0.35.
A further data set concerns MMP9. Put plainly: qRT-PCR gene expression, MMP9. It counts as cell-based. To be noted: 5× IC50, 24 h, compared to untreated cells. The protocol: as §1, §2
Data set [8] in a line: Stability test in polar solvents. It counts as physicochemical. The protocol:
Each compound was dissolved at RT in MeOH or PBS (25 mM, pH 7.4) up to a final concentration of 500 μM. Aliquot samples (20 μL) were taken at fixed time points (0.0, 4.0, 8.0, and 24.0 h) and were analyzed by UV/LC–MS. For each compound, the determination was performed in three independent experiments.

FAAH, sequence (O08914 whole entry): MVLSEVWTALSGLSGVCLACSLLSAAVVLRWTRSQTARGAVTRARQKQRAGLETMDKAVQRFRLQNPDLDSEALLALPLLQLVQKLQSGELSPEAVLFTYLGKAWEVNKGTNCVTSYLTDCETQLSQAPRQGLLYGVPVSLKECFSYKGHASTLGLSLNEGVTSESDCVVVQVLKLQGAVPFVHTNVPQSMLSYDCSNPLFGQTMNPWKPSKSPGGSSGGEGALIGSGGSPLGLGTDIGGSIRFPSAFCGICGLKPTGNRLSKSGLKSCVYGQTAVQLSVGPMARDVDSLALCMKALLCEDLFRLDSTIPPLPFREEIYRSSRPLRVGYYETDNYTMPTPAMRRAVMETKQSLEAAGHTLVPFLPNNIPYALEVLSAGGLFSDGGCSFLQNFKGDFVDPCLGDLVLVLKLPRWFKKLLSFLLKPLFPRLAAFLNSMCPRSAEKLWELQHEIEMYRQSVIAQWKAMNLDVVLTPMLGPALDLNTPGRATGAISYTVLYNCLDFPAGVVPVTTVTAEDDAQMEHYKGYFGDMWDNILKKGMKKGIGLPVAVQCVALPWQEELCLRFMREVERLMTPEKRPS

Take `O=C(c1cc(O)ccc1F)N1CCC(Cc2cccc(Oc3cc(C(F)(F)F)ccn3)c2)CC1` [Compound 13, (2-Fluoro-5-hydroxyphenyl)(4-(3-((4-(trifluoromethyl)pyridin-2-yl)oxy)benzyl)piperidin-1-yl)methanone]: the induction of apoptosis entry in the data set on PDAC3 cells [1] is recorded as “strongly enhanced apoptosis induction”. Also, the scratch area closed in the data set on PDAC3 cells [2] is listed as 38 ± 6%. In addition, the “TAMRA-FP labelling of ABHD6 band (ABPP)” value at ABHD6 is on record as “without affecting”. Moreover, the Bcl-2 gene expression result with Bcl-2 was “slight reduction”. The figures for the solubility at 24 h in the data set “Water solubility” (read-out: water solubility) and in “Water solubility” (read-out: water solubility (logS)) were less than 1 ng/mL and less than 2.11 nM, respectively. Also, the “TAMRA-FP labelling of ABHD12 band (ABPP)” value at ABHD12 is on record as “without affecting”. In data set [3], the IC50 antiproliferative activity entry is reported as “not sensitive”. In addition, the IC50 was more than 20 µM in [3] (Homo sapiens, read-out: IC50 antiproliferative activity); 7.25 µM in data set [4]; more than 10 µM on hCB1; 12.6 µM in data set [6]. Moreover, the “TAMRA-FP labelling of FAAH band (ABPP)” value at FAAH is “without affecting”. The metabolic stability in data set [5] is given as 92.7%. The “levels of active caspase-3” value in data set [7] was 1.12 ng/mL. Also, the MMP9 gene expression result in the data set on MMP9 is recorded as “significant reduction”. Also, the “stability MeOH” value in data set [8] (MeOH, RT) is recorded as more than 24 h. Besides, the “stability PBS pH 7.4” value in data set [8] (PBS pH 7.4, RT) was more than 24 h.

As a reminder, the solubility is how much of the substance goes into solution per volume. One may read the IC50 as the concentration that gives 50% inhibition.
